Converted amounts (≈) assume the structure as drawn. Like-named read-outs stand apart in the source and are kept apart here.
Columns and labels:
[1] = target: T1, full-length beta-Catenin (Uniprot ID P35222) (Homo sapiens, UniProt P35222); experiment: Fluorescence polarization IC50 (beta-catenin / 5FAM-TCF4 10-53 competition); assay type: binding; details: Table E2-1; read-out: beta-Catenin FP IC50
T1 construct: 10 nM full-length beta-Catenin (Uniprot ID P35222)
T1 sequence (P35222 1-781): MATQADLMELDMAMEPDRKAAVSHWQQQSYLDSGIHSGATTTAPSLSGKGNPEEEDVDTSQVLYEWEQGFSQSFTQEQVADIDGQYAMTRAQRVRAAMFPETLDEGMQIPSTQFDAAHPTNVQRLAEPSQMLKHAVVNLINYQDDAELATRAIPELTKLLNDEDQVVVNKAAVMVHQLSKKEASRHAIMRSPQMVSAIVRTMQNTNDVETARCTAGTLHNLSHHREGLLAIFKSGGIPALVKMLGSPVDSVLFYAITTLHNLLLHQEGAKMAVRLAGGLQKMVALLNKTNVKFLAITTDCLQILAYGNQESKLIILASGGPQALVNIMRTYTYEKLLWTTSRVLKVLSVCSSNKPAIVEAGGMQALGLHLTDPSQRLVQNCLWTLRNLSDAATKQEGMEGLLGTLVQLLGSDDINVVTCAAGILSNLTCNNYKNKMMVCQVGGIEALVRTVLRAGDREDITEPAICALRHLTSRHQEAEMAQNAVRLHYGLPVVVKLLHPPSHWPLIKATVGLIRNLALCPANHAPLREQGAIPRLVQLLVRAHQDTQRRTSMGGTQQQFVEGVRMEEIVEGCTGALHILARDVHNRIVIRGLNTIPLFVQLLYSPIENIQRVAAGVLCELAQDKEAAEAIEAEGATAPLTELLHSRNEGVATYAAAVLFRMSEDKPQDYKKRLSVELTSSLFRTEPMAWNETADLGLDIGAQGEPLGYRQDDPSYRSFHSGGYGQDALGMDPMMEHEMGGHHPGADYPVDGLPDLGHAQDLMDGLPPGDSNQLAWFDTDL

[2] = target: T2, full-length B-Catenin (Uniprot ID P35222) (Homo sapiens, UniProt P35222); experiment: Alphascreen binding assay (beta-catenin / biotin-TCF4 10-53)
T2 construct: 65 nM full-length B-Catenin (Uniprot ID P35222)
T2 sequence (P35222 1-781): T1 sequence (P35222 1-781)
Outline: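 Final concentrations: 65 nM full-length human β-catenin plus 10 nM biotin-TCF4(10-53) peptide, test peptide 3-fold from 10 uM to 5 nM, preincubated 15 min at 20 °C in Tris pH 8.0/250 mM NaCl buffer. Nickel-chelate AlphaScreen donor/acceptor beads then added for 60 min in the dark; duplicate reads fitted to 1:1 binding model with Hill slope.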

[3] = CHI Log D procedure; assay type: physicochemical; details: for chromatographic logD: pH 7.4, CHI Log D; for CHI Log D: pH 7.4
[4] = Solubility in PBS; assay type: physicochemical
Outline: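 Solubility is derived from HPLC peak areas: the ratio of the PBS supernatant peak to a 50 μM DMSO peptide peak, times 50 uM.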

## CC(=O)N1CCC[C@]12CC=CCCCC1(CCCC=CCCCCCC[C@@](C)(C(=O)N[C@@H](Cc3ccccc3)C(=O)N[C@@H](Cc3c[nH]c4ccccc34)C(=O)N[C@@H](CCC(N)=O)C(N)=O)NC(=O)[C@H](C(C)C)NC(=O)[C@H](Cc3ccccc3)NC(=O)[C@H](C)NC(=O)[C@H](C)NC(=O)[C@H](CC(=O)O)NC(=O)[C@H](CC(=O)O)NC1=O)NC(=O)[C@H](C)NC(=O)[C@H](CC(=O)O)NC2=O (stereo partly drawn) [I-52, Ac-PL3-Asp-Ala-B5-Asp-Asp-Ala-Ala-Phe-Val-S8-Phe-Trp-Gln-NH2]
[1]
  IC50: 3.2 µM
[2]
  EC50: 0.158 µM
[3]
  chromatographic logD: 1.93
[4]
  Solubility: 50 µM (≈ 89.1 µg/mL)

## CCN(CC(=O)O)C[C@@H]1NC(=O)[C@H](CC(=O)O)NC(=O)C2(CCCC=CCCCCCC[C@@](C)(C(=O)N[C@@H](Cc3ccccc3)C(=O)N[C@@H](Cc3c[nH]c4ccccc34)C(=O)N[C@@H](CCC(N)=O)C(N)=O)NC(=O)[C@H](C(C)C)NC(=O)[C@H](Cc3ccccc3)NC(=O)[C@H](C)NC(=O)[C@H](C)NC1=O)CCCC=CC[C@]1(CCCN1C(C)=O)C(=O)N[C@@H](CC(=O)O)C(=O)N[C@@H](C)C(=O)N2 (stereo partly drawn) [I-172, Ac-PL3-Asp-Ala-B5-Asp-EtGA-Ala-Ala-Phe-Val-S8-Phe-Trp-Gln-NH2]
[2]
  EC50: 0.324 µM
[3]
  CHI Log D: 2.173
[4]
  Solubility: 50 µM (≈ 91.9 µg/mL)

## CC(=O)N[C@@H](Cc1ccccc1)C(=O)N[C@@H](CC(=O)O)C(=O)N[C@@H](C)C(=O)N[C@]1(C)CCCCCCC=CCOC(=O)N2CC[C@@](C(=O)N[C@@H](Cc3c(F)c(F)c(F)c(F)c3F)C(=O)N[C@@H](Cc3c[nH]c4ccccc34)C(=O)N[C@@H](CCC(N)=O)C(N)=O)(C2)NC(=O)[C@H](C(C)C)NC(=O)[C@H](Cc2ccccc2)NC(=O)[C@H](C)NC(=O)[C@H](C)NC(=O)[C@H](CC(=O)O)NC(=O)[C@H](CC(=O)O)NC1=O [I-227, Ac-Phe-Asp-Ala-R8-Asp-Asp-Ala-Ala-Phe-Val-PyrS-Pff-Trp-Gln-NH2]
[2]
  EC50: 5.91 µM
[3]
  CHI Log D: 1.534
[4]
  Solubility: 38 µM (≈ 72.7 µg/mL)

## CC(=O)N[C@@H](Cc1ccccc1)C(=O)N[C@@H](CC(=O)O)C(=O)N[C@@H](C)C(=O)N[C@]1(C)CCCCCCC=CCOC(=O)N2CC[C@@](C(=O)N[C@@H](Cc3c(F)c(F)c(F)c(F)c3F)C(=O)N[C@@H](Cc3c[nH]c4ccccc34)C(=O)N[C@@H](CCC(N)=O)C(N)=O)(C2)NC(=O)[C@H](C(C)C)NC(=O)[C@H](Cc2ccccc2)NC(=O)[C@H](C)NC(=O)[C@H](C)NC(=O)[C@H](CC(=O)O)NC(=O)[C@H](CC(=O)O)NC1=O [I-228, Ac-Phe-Asp-Ala-R8-Asp-Asp-Ala-Ala-Phe-Val-PyrS-Pff-Trp-Gln-NH2]
[2]
  EC50: 5.91 µM
[3]
  CHI Log D: 1.534
[4]
  Solubility: 38 µM (≈ 72.7 µg/mL)

## CC(=O)N1CCC[C@]12CC=CCCCC1(CCCC=CCCCCCC[C@@](C)(C(=O)N[C@@H](Cc3ccccc3)C(=O)N[C@@H](Cc3c[nH]c4ccccc34)C(=O)N[C@@H](CCC(N)=O)C(N)=O)NC(=O)[C@H](C(C)C)NC(=O)[C@H](Cc3ccccc3)NC(=O)[C@H](C)NC(=O)[C@H](C)NC(=O)C(Cc3cccc4cc(F)ccc34)NC(=O)[C@H](CC(=O)O)NC1=O)NC(=O)[C@H](C)NC(=O)[C@H](CC(=O)O)NC2=O (stereo partly drawn) [I-256, Ac-PL3-Asp-Ala-B5-Asp-6F1NapA-Ala-Ala-Phe-Val-S8-Phe-Trp-Gln-NH2]
[2]
  EC50: 9.21 µM
[3]
  chromatographic logD: 3.1
[4]
  Solubility: 10 µM (≈ 18.8 µg/mL)

## CC(=O)N1CCC[C@]12CC=CCCCC1(CCCC=CCCCCCC[C@@](C)(C(=O)N[C@@H](CCc3ccccc3)C(=O)N[C@@H](Cc3c[nH]c4ccccc34)C(=O)N[C@@H](CCC(N)=O)C(N)=O)NC(=O)[C@H](C(C)C)NC(=O)[C@H](Cc3ccccc3)NC(=O)[C@H](C)NC(=O)[C@H](C)NC(=O)[C@H](CC(=O)O)NC(=O)[C@H](CC(=O)O)NC1=O)NC(=O)[C@H](C)NC(=O)[C@H](CC(=O)O)NC2=O (stereo partly drawn) [I-268, Ac-PL3-Asp-Ala-B5-Asp-Asp-Ala-Ala-Phe-Val-S8-hPhe-Trp-Gln-NH2]
[2]
  EC50: 4 µM
[3]
  chromatographic logD: 2.08
[4]; Solubility (uM)
  Solubility: 47 µM (≈ 84.4 µg/mL)

## CC(=O)N1CCC[C@]12CC=CCCCC1(CCCC=CCCCCCC[C@@](C)(C(=O)N[C@@H](Cc3ccccc3)C(=O)N[C@@H](Cc3c[nH]c4ccccc34)C(=O)N[C@@H](CCC(N)=O)C(N)=O)NC(=O)[C@H](C(C)C)NC(=O)[C@H](Cc3ccccc3)NC(=O)[C@H](C)NC(=O)[C@H](C)NC(=O)[C@H](CCc3ccc(O)cc3)NC(=O)[C@H](CC(=O)O)NC1=O)NC(=O)[C@H](C)NC(=O)[C@H](CC(=O)O)NC2=O (stereo partly drawn) [I-273, Ac-PL3-Asp-Ala-B5-Asp-hTyr-Ala-Ala-Phe-Val-S8-Phe-Trp-Gln-NH2]
[2]
  EC50: 1.89 µM
[3]
  chromatographic logD: 2.74
[4]
  Solubility: 10 µM (≈ 18.4 µg/mL)

## CC(=O)N1CCC[C@]12CC=CCCCC1(CCCC=CCCCCCC[C@@](C)(C(=O)N[C@@H](Cc3ccccc3)C(=O)N[C@@H](Cc3c[nH]c4ccccc34)C(=O)N[C@@H](CCC(N)=O)C(N)=O)NC(=O)[C@H](C(C)C)NC(=O)[C@H](Cc3ccccc3)NC(=O)[C@H](C)NC(=O)[C@H](C)NC(=O)[C@H](Cc3ccc(O)cc3)NC(=O)[C@H](CC(=O)O)NC1=O)NC(=O)[C@H](C)NC(=O)[C@H](CC(=O)O)NC2=O (stereo partly drawn) [I-274, Ac-PL3-Asp-Ala-B5-Asp-Tyr-Ala-Ala-Phe-Val-S8-Phe-Trp-Gln-NH2]
[2]
  EC50: 2.35 µM
[3]
  chromatographic logD: 2.62
[4]
  Solubility: 10 µM (≈ 18.3 µg/mL)

## CC(=O)N1CCC[C@]12CC=CCCCC1(CCCC=CCCCCCC[C@@](C)(C(=O)N[C@@H](Cc3ccc4ccccc4c3)C(=O)N[C@@H](Cc3c[nH]c4ccccc34)C(=O)N[C@@H](CCC(N)=O)C(N)=O)NC(=O)[C@H](C(C)C)NC(=O)[C@H](Cc3ccccc3)NC(=O)[C@H](C)NC(=O)[C@H](C)NC(=O)[C@H](CC(=O)O)NC(=O)[C@H](CC(=O)O)NC1=O)NC(=O)[C@H](C)NC(=O)[C@H](CC(=O)O)NC2=O (stereo partly drawn) [I-277, Ac-PL3-Asp-Ala-B5-Asp-Asp-Ala-Ala-Phe-Val-S8-2NapA-Trp-Gln-NH2]
[2]
  EC50: 6.8 µM
[3]
  CHI Log D: 2.186
[4]
  Solubility: 45 µM (≈ 82.4 µg/mL)

## CC(=O)N1CCC[C@]12CC=CCCCC1(CCCC=CCCCCCC[C@@](C)(C(=O)N[C@@H](Cc3ccccc3)C(=O)N[C@@H](Cc3c[nH]c4ccccc34)C(=O)N[C@@H](CCC(N)=O)C(N)=O)NC(=O)[C@H](C(C)C)NC(=O)[C@H](C)NC(=O)[C@H](C)NC(=O)[C@H](C)NC(=O)[C@H](CC(=O)O)NC(=O)[C@H](CC(=O)O)NC1=O)NC(=O)[C@H](C)NC(=O)[C@H](CC(=O)O)NC2=O (stereo partly drawn) [I-353, Ac-PL3-Asp-Ala-B5-Asp-Asp-Ala-Ala-Ala-Val-S8-Phe-Trp-Gln-NH2]
[2]
  EC50: 9.29 µM
[3]
  CHI Log D: 1.916
[4]
  Solubility: 45 µM (≈ 76.7 µg/mL)

## CC(=O)N1CCC[C@]12CC=CCCCC1(CCCC=CCCCCCC[C@@](C)(C(=O)N[C@@H](Cc3ccccc3)C(=O)N[C@@H](Cc3c[nH]c4ccccc34)C(=O)N[C@@H](CCC(N)=O)C(N)=O)NC(=O)[C@H](C(C)C)NC(=O)[C@H](C)NC(=O)[C@H](C)NC(=O)[C@H](C)NC(=O)[C@H](CC(=O)O)NC(=O)[C@H](CC(=O)O)NC1=O)NC(=O)[C@H](C)NC(=O)[C@H](CC(=O)O)NC2=O (stereo partly drawn) [I-354, Ac-PL3-Asp-Ala-B5-Asp-Asp-Ala-Ala-Ala-Val-S8-Phe-Trp-Gln-NH2]
[2]
  EC50: 2.13 µM
[3]
  CHI Log D: 1.947
[4]
  Solubility: 50 µM (≈ 85.2 µg/mL)

## CC(=O)N1CCC[C@]12CC=CCCCC1(CCCC=CCCCCCC[C@@](C)(C(=O)N[C@@H](C)C(=O)N[C@@H](Cc3c[nH]c4ccccc34)C(=O)N[C@@H](CCC(N)=O)C(N)=O)NC(=O)[C@H](C(C)C)NC(=O)[C@H](Cc3ccccc3)NC(=O)[C@H](C)NC(=O)[C@H](C)NC(=O)[C@H](CC(=O)O)NC(=O)[C@H](CC(=O)O)NC1=O)NC(=O)[C@H](C)NC(=O)[C@H](CC(=O)O)NC2=O (stereo partly drawn) [I-356, Ac-PL3-Asp-Ala-B5-Asp-Asp-Ala-Ala-Phe-Val-S8-Ala-Trp-Gln-NH2]
[2]
  EC50: 8.2 µM
[3]
  CHI Log D: 1.619
[4]
  Solubility: 50 µM (≈ 85.2 µg/mL)
